We go through 2 compounds from patent US20020013373A1, “Methods and compositions for treatment of asthma” (priority 1997, published 2002).

Like-named read-outs stand apart in the source and are kept apart here.

Data set [1] has as its system allergic sheep. As to the kind of experiment: Antigen-induced airway hyperresponsiveness (AHR), PD400 of carbachol, acute responder sheep. The settings on record: acute responders; for inhibition of AHR (PD400): 2 hours after antigen, FIG. 7. Type of data set: in vivo. As for the experimental part:
(§1) To assess the normal or baseline airway responsiveness of the sheep, cumulative dose response curves to inhaled carbochol were performed. The SRL of each sheep was measured before and after inhalation of a buffered saline solution and after each administration of 10 breaths of increasing concentrations of carbachol (0.25, 0.5, 1.0, 2.0 and 4.0% wt/vol solution). Airway responsiveness was defined by determination of the cumulative provocation dose (PD400) of carbachol (in breath units) that increased SRL to 400% above baseline. One breath unit was defined as one breath of 1% carbachol solution.
(§2) The following experiments used inhaled D- or L-propranolol. AHR was estimated at 2 hours (acute) or 24 hours (dual) after antigen challenge as the provocating dose of carbachol which increased SRL by 400% (PD400). In acute responders, SRL increased by 219% with antigen challenge and PD400 decreased by 55%. Inhaled D-propranolol had no effect on baseline SRL, but inhibited ABR in a dose dependent manner.

Data set [2] deals with allergic sheep. Briefly: Antigen-induced bronchoconstriction (early and late phase SRL), dual responder sheep. Type of data set: in vivo. Conditions: dual responders. From the text: Data was expressed as specific resistance, SRL.
The test system of data set [3] is allergic sheep. As to the kind of experiment: Antigen-induced airway hyperresponsiveness (AHR), PD400 of carbachol, dual responder sheep. The settings on record: dual responders. Type of data set: in vivo. Here is the method:
as §1, §2

The test system of data set [4] is allergic sheep. Conditions: for inhibition of ABR: FIG. 6.
Procedure: Five allergic sheep, with previously documented acute bronchoconstrictor response to Ascaris suum antigen, were used for all studies. The sheep were intubated with a cuffed nasotracheal tube and pulmonary airflow resistance (RL) was measured by the esophageal balloon catheter technique, while thoracic gas volume was measured by body plethysmography. Data was expressed as specific resistance, SRL. SRL is defined as RL times thoracic gas volume (Vtg).
The normal reaction of the sheep to the antigen from Ascaris suum is measured. After full recovery and a two week rest period, the sheep again undergo repeat antigen challenge, but this time only after treatment with D-propranolol.
The SRL of the acute responder sheep was measured prior to any treatment (baseline). The normal response of the sheep to antigen challenge by Ascaris suum antigen was measured (Open circles). […] One hour after D-propranolol was administered, the sheep were challenged with Ascaris suum antigen by inhalation. The SRL was measured immediately after antigen challenge (AG0).
Specific lung resistance (SRL) was measured in 11 allergic sheep, of which six sheep were acute responders and five sheep were dual responders, before and serially after challenge with Ascaris suum antigen, without and after pretreatment with D- or L-propranolol. The propranolol was administered either in an inhaled dose or an oral dose.
The mark [5] stands for this setting: inhaled, FIG. 18 (legend: 10 mg/kg).

As to `CC(C)NC[C@@H](O)COc1cccc2ccccc12` [D-propranolol], the “airway responsiveness (PD400) after antigen” value in data set [1] (Example I, inhaled 10 mg in 4 mL PBS, P=NS, FIG. 4) is given as “maintained the airway responsiveness levels at the baseline”. The “inhibition of AHR (PD400)” value was found to be 30% in data set [1] (inhaled, 5 mg dose); 50% in data set [1] (inhaled, 10 mg dose); 75% in data set [1] (inhaled, 20 mg dose, P<0.05 vs post-antigen); 44% in data set [3] (inhaled, 5 mg dose, 24 hours after antigen, P<0.05, FIG. 13). Besides, the “effect on AHR (change in PD400)” value in data set [1] (oral, 5 mg/kg, FIG. 11) is “effects”. For the same compound, the “attenuation of early phase” value in data set [2] (inhaled, 5 mg dose, FIG. 12) amounted to 35%. Moreover, in data set [2] (inhaled, 5 mg dose, FIG. 12), the “attenuation of late phase” value came out at 21%. In addition, the “effect on ABR” value in data set [2] (inhaled, 10 mg dose, FIG. 14) is “effected ABR”. Moreover, the “effect on early phase” value in data set [2] (oral, 5 mg/kg, FIG. 16) was “significantly effected the early phase”. In data set [2] (oral, 5 mg/kg, FIG. 16), the “effect on late phase response” value was “may even remove the late phase response”. For the same compound, the “effect on AHR” value is given as “effected” in data set [3] (inhaled, 10 mg dose, FIG. 15) and “effected AHR” in data set [3] (oral, 5 mg/kg, FIG. 17). In addition, in data set [4] (Example I, acute responders (n=5), aerosol 10 mg in 4 mL PBS one hour before antigen, FIG. 1), the “allergic bronchoconstriction after antigen challenge” value is on record as “significant inhibition of allergic bronchoconstriction”. In addition, the “percentage change in SRL after antigen stimulation vs control” value in data set [4] (Example I, acute responders (n=5), aerosol 10 mg in 4 mL PBS, P<0.05, FIG. 2) is reported as “significantly less change in SRL”. Also, the “inhibition of ABR” value was 37% in data set [4] (acute responders, inhaled, 5 mg dose); 68% in data set [4] (acute responders, inhaled, 10 mg dose, P<0.05); 44% in data set [4] (acute responders, inhaled, 20 mg dose). In data set [4] (acute responders, oral, 5 mg/kg, FIG. 10), the “effect on ABR (change in SRL)” value is recorded as “effects ABR”. Besides, in data set [4] (in vivo), the “effect on baseline SRL” value was “had no effect”.

For the compound `CC(C)NC[C@H](O)COc1cccc2ccccc12` [L-propranolol, reference compound], the “AHR response (PD400)” value in data set [1] (inhaled, 10 mg dose, FIG. 9) is “no difference between the post antigen and L-propranolol responses”. In addition, in data set [2] (setting [5]), the “effect on antigen-induced responses” value is given as “ineffective”, the “peak early change in SRL” value worked out at 351% and the “peak late SRL” value was determined as 175%. In data set [3] (inhaled, 24 hours after antigen, FIG. 19 (legend: 10 mg/kg)), the “effect on PD400” value is “had no effect”. The “change in SRL after antigen challenge” value in data set [4] (acute responders, inhaled, 10 mg dose, FIG. 8) was determined as 209%.
